Laboratory results reported in ChEMBL document CHEMBL5042493, “Enhancing monoamine oxidase B inhibitory activity via chiral fluorination: Structure-activity relationship, biological evaluation, and molecular docking study” (Eur J Med Chem, 2022).
Active and inactive are the calls of the source. The calls are words filed in the database; no cut-off is given here.

Key:
Mus musculus [1] = assay: Neuroprotective activity against MPTP-induced C57BL/6 mouse model of Parkinson's disease assessed as increase in DA level in striatum at 0.625 to 2.5 mg/kg, ip pretreated for 15 mins followed by MPTP challenge and measured after 8 days post MPTP challenge by HPLC electrochemical detection method; assay type: functional, organism-based; settings: dose 0.625-2.5 mg/kg, time 8.0 day
Homo sapiens = species on record: Homo sapiens; assay: Selectivity index, ratio of IC50 for recombinant human MAO-A expressed in Sf9 cells to IC50 for recombinant human MAO-B expressed in Sf9 cells
[2] = Half life in Cynomolgus monkey rat at 5 mg/kg, po measured upto 24 hrs; assay type: ADME, organism-based, Macaca fascicularis; settings: in vivo
[3] = Cmax in Cynomolgus monkey rat at 5 mg/kg, po measured upto 24 hrs; assay type: ADME, organism-based, Macaca fascicularis; design: route oral, dose 5 mg/kg, time <=24; settings: in vivo
[4] = target: 5-hydroxytryptamine receptor 2B (Homo sapiens) (UniProt P41595); assay: Binding affinity to 5-HT2B receptor (unknown origin) expressed in CHO-K1 cells; assay type: cell-based; settings: concentration not given here
[5] = Plasma protein binding in monkey assessed as unbound fraction at 1 uM measured after 5 hrs by LC-MS/MS analysis; assay type: ADME, cell-free, Macaca mulatta; settings: rhesus monkey
[6] = Plasma protein binding in human assessed as unbound fraction at 1 uM measured after 5 hrs by LC-MS/MS analysis; assay type: ADME, cell-free
[7] = Metabolic stability in mouse liver microsome assessed as half life at 1 uM measured after 60 min in presence of NADPH by LC-MS/MS analysis; assay type: ADME; settings: liver microsomes
Rattus norvegicus = assay: Neuroprotective activity against galantamine-induced Sprague-Dawley rat model of Parkinson's disease assessed as reduction in galantamine-induced tremulous jaw movements at 0.156 to 1.25 mg/kg, ip preincubated with galantamine for 15 mins followed by compound addition and measured after 15 mins; assay type: functional, organism-based; settings: dose 0.156-1.25 mg/kg
Mus musculus [8] = assay: Neuroprotective activity against MPTP-induced C57BL/6 mouse model of Parkinson's disease assessed as increase in DA level in striatum at 1.25 to 5 mg/kg, ip pretreated with MPTP for 4 hrs followed by incubation with compound for five times at 24 hrs interval and measured after 30 mins by HPLC electrochemical detection method in the presence of L-dopa and benserazide; assay type: functional, organism-based; settings: dose 1.25-5 mg/kg, time 24.5 hrs
[9] = Oral bioavailability in Sprague dawley rat at 5 mg/kg measured upto 24 hrs; assay type: ADME, organism-based; settings: in vivo
Mus musculus [10] = assay: In vivo inhibition of MAO-B in ICR mouse brain at 0.4 to 2 mg/kg, ip administered once a week for 21 days by fluorescence based monoamine oxidase assay; assay type: functional, organism-based; settings: dose 0.4-2 mg/kg, time 21.0 day
[11] = AUC (0-t) in Cynomolgus monkey at 1 mg/kg, iv measured upto 24 hrs; assay type: ADME, organism-based, Macaca fascicularis; design: route intravenous, dose 1 mg/kg, time <=24; settings: in vivo
[12] = Metabolic stability in monkey liver microsome assessed as half life at 1 uM measured after 60 min in presence of NADPH by LC-MS/MS analysis; assay type: ADME, Macaca mulatta; settings: rhesus monkey, liver microsomes
[13] = Clearance in Cynomolgus monkey rat at 1 mg/kg, iv measured upto 24 hrs; assay type: ADME, organism-based, Macaca fascicularis; settings: in vivo
Salmonella typhimurium = assay: Genotoxicity in Salmonella typhimurium by Ames test; assay type: toxicity, organism-based; settings: salmonella enterica subsp. enterica serovar typhimurium
[14] = Volume of distribution at steady state in Sprague dawley rat at 1 mg/kg, iv measured upto 24 hrs; assay type: ADME, organism-based; settings: in vivo, read-out: Vdss
[15] = Half life in Sprague dawley rat at 5 mg/kg, po measured upto 24 hrs; assay type: ADME, organism-based; settings: in vivo
Cytochrome P450 1A2 = target: T1, Cytochrome P450 1A2 (Homo sapiens, UniProt P05177); assay: Inhibition of human CYP1A2 preincubated for 10 min followed by addition of NADPH and measured after 10 min by LC-MS/MS analysis; assay type: ADME
T1 sequence (P05177 whole entry): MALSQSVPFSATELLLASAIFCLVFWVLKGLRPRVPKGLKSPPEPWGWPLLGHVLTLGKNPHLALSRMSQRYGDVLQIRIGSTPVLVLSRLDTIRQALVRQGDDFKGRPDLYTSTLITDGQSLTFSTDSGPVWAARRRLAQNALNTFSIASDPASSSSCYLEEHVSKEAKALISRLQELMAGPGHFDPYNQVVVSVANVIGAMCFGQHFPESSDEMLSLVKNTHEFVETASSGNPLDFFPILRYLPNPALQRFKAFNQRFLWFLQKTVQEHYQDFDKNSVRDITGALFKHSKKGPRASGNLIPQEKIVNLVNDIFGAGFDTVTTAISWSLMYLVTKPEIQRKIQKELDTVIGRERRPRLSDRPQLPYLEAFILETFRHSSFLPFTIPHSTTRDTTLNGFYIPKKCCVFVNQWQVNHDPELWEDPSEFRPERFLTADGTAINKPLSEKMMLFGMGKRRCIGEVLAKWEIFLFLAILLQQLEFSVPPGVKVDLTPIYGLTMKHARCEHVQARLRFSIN

hERG (KCNH2) = hERG (KCNH2) (Homo sapiens, UniProt Q12809); assay: Inhibition of human ERG expressed in CHO-K1 cells by Patch Clamp method; assay type: toxicity, cell-based; settings: CHO-K1 cells expressing human ERG
Cytochrome P450 2C19 = Cytochrome P450 2C19 (Homo sapiens, UniProt P33261); assay: Inhibition of human CYP2C19 preincubated for 10 min followed by addition of NADPH and measured after 45 min by LC-MS/MS analysis; assay type: ADME
Chain of Cytochrome P450 2C19 (P33261 whole entry): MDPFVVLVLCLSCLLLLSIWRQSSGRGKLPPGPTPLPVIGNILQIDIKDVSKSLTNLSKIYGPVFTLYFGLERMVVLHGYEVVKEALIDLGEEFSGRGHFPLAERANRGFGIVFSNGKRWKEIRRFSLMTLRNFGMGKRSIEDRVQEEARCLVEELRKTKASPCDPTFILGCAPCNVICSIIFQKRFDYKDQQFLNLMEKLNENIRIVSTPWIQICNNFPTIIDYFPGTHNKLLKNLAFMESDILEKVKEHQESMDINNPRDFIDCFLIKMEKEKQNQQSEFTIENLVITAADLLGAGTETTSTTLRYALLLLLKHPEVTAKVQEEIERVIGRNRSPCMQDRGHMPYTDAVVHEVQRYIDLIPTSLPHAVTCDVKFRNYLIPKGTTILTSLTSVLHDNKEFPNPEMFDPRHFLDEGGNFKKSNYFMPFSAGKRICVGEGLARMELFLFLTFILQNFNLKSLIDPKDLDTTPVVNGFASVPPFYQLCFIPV

Chain of 5-hydroxytryptamine receptor 2B (Homo sapiens) (P41595 whole entry): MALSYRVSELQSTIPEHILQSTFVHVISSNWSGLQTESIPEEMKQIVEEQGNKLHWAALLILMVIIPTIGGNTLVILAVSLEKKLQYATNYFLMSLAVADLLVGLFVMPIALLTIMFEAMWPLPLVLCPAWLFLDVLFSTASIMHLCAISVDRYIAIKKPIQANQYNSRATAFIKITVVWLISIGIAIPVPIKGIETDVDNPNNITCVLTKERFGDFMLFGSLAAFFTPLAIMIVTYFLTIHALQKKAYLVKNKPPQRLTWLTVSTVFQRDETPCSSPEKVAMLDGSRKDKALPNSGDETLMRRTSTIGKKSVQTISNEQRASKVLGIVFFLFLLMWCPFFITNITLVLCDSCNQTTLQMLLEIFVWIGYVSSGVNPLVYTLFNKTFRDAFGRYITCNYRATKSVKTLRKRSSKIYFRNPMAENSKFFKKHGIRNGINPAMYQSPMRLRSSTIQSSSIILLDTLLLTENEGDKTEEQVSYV
Chain of hERG (KCNH2) (Q12809 whole entry): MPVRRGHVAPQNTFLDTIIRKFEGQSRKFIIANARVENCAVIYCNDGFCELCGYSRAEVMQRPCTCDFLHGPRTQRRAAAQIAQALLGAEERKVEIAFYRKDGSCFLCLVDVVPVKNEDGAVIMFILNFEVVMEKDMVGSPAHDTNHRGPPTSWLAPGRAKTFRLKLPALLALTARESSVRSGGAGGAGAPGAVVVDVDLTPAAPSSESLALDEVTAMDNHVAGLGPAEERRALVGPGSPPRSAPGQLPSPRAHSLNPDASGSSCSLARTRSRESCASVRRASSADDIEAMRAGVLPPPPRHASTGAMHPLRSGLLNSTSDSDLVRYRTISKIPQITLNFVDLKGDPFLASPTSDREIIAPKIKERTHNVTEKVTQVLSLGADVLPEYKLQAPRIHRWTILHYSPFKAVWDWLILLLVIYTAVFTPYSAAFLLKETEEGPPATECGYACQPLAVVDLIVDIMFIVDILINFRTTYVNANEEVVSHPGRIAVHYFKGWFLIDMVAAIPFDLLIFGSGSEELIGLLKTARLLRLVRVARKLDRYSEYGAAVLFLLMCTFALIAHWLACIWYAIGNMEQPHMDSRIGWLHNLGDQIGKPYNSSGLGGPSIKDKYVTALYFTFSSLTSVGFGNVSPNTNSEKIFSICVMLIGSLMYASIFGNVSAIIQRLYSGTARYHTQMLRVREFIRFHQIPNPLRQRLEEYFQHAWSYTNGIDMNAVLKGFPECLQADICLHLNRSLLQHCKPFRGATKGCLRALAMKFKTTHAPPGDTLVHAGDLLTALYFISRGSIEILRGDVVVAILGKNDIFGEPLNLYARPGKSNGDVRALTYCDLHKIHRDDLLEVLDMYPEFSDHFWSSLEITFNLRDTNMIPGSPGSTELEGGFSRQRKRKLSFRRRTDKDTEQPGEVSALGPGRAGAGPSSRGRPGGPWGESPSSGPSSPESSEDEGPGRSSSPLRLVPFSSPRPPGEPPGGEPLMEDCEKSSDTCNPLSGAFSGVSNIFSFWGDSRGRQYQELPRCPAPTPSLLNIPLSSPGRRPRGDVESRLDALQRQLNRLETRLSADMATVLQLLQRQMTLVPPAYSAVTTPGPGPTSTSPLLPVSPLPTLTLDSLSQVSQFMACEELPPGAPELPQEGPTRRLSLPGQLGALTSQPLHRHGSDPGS

half-life [2]: 168 min
Cmax [3]: 2280 ng/mL
inhibition [4]: 57%
fraction unbound at 5 h, 1 µM [5]: 0.0407
fraction unbound at 5 h, 1 µM [6]: 0.0363
half-life at 1 µM [7]: 9.37 min
bioavailability [9]: 55.2%
AUC(0-t) at 24 h [11]: 2120 ng·h/mL
half-life at 1 µM [12]: 36.9 min
clearance [13]: 7.54 mL/min/kg
Vd [14]: 1.37 L/kg
half-life [15]: 34.2 min
IC50 (Cytochrome P450 1A2): > 29 µM
IC50 (Cytochrome P450 2C19): > 29 µM
SMILES: NC(=O)[C@@H]1C[C@H](F)CN1Cc1ccc(OCc2cccc(F)c2)cc1
Activity (Mus musculus [1]): Active
Ratio IC50 (Homo sapiens): 2440
Activity (Rattus norvegicus): Active
Activity (Mus musculus [8]): Active
inhibition (Mus musculus [10]): Active
Activity (Salmonella typhimurium): Non-Toxic
IC50 (hERG (KCNH2)): > 30 µM
